Assay results from US10398751B2, “Pharmaceutical compositions of water soluble peptides with poor solubility in isotonic conditions and methods for their use” (STRONGBRIDGE IRELAND LIMITED, priority 2016, dated 2019).
≈ marks a conversion by molar mass, not a printed value. Where two headings read alike, the source gives them in different places.

Experiments:
[1] = Solubility of COR005 acetate in aqueous media with additives at 25° C.; type: physicochemical; conditions: isotonic 5% dextrose in water, 5% Dextrose Isotonic; additives none; read-out: Solubility of COR005 Acetate (mg/ml) at 25° C.
Source text: Table 3 summarizes the solubility values of COR005 acetate in various aqueous media, the effects of additives such as DEX and HPB on the peptide solubility in saline and physiological conditions, as well as the PK profile of IR and MS formulations prepared with these additives in comparison to COR005 without additives as control.
Note that both media (PBS or Saline) contained physiological concentrations of chloride which indicates the incompatibility and salting out of the peptide in the presence of the chloride ion.
The relatively high solubility of COR005 acetate in 5% dextrose (in water) of greater than 500 mg/ml indicates the improved solubility of the peptide in water with dextrose. […] Note that this 1:1 diluted dextrose in saline was used as a vehicle in the IR study of COR005 acetate in rats and minipigs (the DEX:PEP ratio was 5:1).

[2] = Density, pH and surface tension of solutions (capillary method); type: physicochemical; conditions: DDW, 25° C., baseline 64.9 dyne/cm
Experimental: Tween 80 was used as a control surfactant for comparison. Densities were measured on 1 mL fixed volume samples. […] The effect of veldoreotide acetate on the pH of double distilled water (DDW) was the same at all veldoreotide acetate concentrations. The pH of DDW of 5.0 was reduced to pH 4.5. The effect of veldoreotide acetate on the density of DDW (starting density of DDW was 1.003 g/ml) was concentration dependent from 1.4 mg/ml to 21.5 mg/ml with density ranging from 0.986 to 0.998 g/ml respectively. However, at veldoreotide acetate concentrations of 45 and 102 mg/ml the density was increased above the starting density of DDW. […] The effect of veldoreotide acetate on the surface tension of DDW (starting surface tension was 64.9 dyne/cm) was consistent with veldoreotide acetate behaving as a peptide amphiphile (surfactant). The surface tension of DDW was reduced by veldoreotide acetate at maximum from 64.9 to 45 dyne/cm. In order to elucidate the meaning of this effect, Tween 80 was used as a reference surfactant. Other surfactants include Polexamer 188. The reduction of surface tension induced by Tween 80 was in the range of 40% (from 64.9 dyne/cm to about 39 dyne/cm), in comparison to veldoreotide acetate of 30% (from 64.9 dyne/cm to about 45 dyne/cm). Note that, under these experimental conditions; the effect of Tween 80 indicated a concentration-effect relationship. Whereas, the effect of veldoreotide acetate on the reduction of surface tension was at the same range for all concentrations tested.
The data of table 4 show the surface activity of highly concentrated COR005 acetate (200 mg/ml), with or without additives in WFI, which emulates the preparation conditions of the primary emulsion of the microspheres. The results of Test 1 and 2 (Table 4) show the effect of COR005 acetate on the surface tension of water. When COR005 acetate is dissolved in water the surface tension is reduced by about 36%, from 68.5 dyne/cm for the water alone to 44 dyne/cm for the solution of water with CR005 acetate at 200 mg/ml.

[3] = Solubility and surface activity in PBS under physiological conditions (37° C.); type: physicochemical; conditions: COR005 10 mg/ml; for Surface tension (dyne/cm) / Effect of surface tension (% of baseline): PBS pH 7.4, 37° C.; for solubility: PBS, pH 7.4, PBS pH 7.4, 37° C.
Experimental: Table 6 summarizes the effects of additives on the surface activity profile of COR005 acetate under physiological conditions (37° C.) that emulate the release of COR005 at the injection site.

[4] = Pharmacokinetics of IR formulations in minipigs; type: in vivo; conditions: minipig, plasma, sc; for bioavailability: read-out: Minipigs absolute BA (F %)
[5] = Emulsification of cottonseed oil and water for injection; type: physicochemical; conditions: 16.6 weight % cottonseed oil, 74.2 weight % WFI, 9.2 weight % peptide, room temperature
Experimental: Based on its amphiphilic properties, veldoreotide acetate was evaluated by means of emulsion formulation. […] Thus, veldoreotide acetate may be considered a w/o ionic surfactant or hydrotrope with a hydrophilic lipophilic balance (HLB) of 6.
The samples were mixed using 25G syringe and vortexed at room temperature.
Veldoreotide was formulated as a water in oil emulsion using 80% (wt %) cottonseed oil, 20% (wt %) water for injection (WFI) and 1% (wt %) veldoreotide acetate. Specifically, 10 mg of veldoreotide acetate was dissolved in 200 uL WFI in a 5 mL glass vial, 800 mg of cottonseed oil was added and the resulting mixture was stirred under magnetic stirring at room temperature for 15 minutes at 1000 rpm. The emulsion was then viewed under the light microscope and stored under refrigeration. The resulting emulsion was stable and found to be injectable via 27G needle.

[6] = 0.4 mg/kg, IR, SC, 0.4 mg/Kg, DEX:PEP 5:1 saline
[7] = 0.4 mg/kg, IR, SC, 0.4 mg/Kg, HPB:PEP 15:1 saline

- solubility [1]: > 500 mg/mL
- reduction of surface tension of water [2]: more than 30%
- Surface tension (dyne/cm) ([3]; Dextrose 5 wt %): 49 dyne/cm
- Effect of surface tension (% of baseline) ([3]; Dextrose 5 wt %, at 48 h): (−18% at 48 h)
- Effect of surface tension (% of baseline) ([3]; Dextrose 5 wt %, baseline PBS/5% DEX): −14%
- Surface tension (dyne/cm) ([3]; HPB:PEP 1:2): 45 dyne/cm
- Effect of surface tension (% of baseline) ([3]; HPB:PEP 1:2, baseline PBS): −6%
- Effect of surface tension (% of baseline) ([3]; HPB:PEP 1:4, baseline PBS): −19%
- Surface tension (dyne/cm) ([3]; HPB:PEP 10:1): 50 dyne/cm
- Effect of surface tension (% of baseline) ([3]; HPB:PEP 10:1, baseline PBS): +4%
- Effect of surface tension (% of baseline) ([3]; no additive, baseline PBS): −29%
- solubility ([3]; Dextrose 5 wt %): 3300 µg/mL (≈ 2.94 mM)
- solubility ([3]; HPB:PEP 1:2): 5000 µg/mL (≈ 4.45 mM)
- solubility ([3]; HPB:PEP 1:4): 3900 µg/mL (≈ 3.47 mM)
- solubility ([3]; HPB:PEP 10:1): 8900 µg/mL (≈ 7.92 mM)
- solubility ([3]; no additive): 3600 µg/mL (≈ 3.2 mM)
- bioavailability ([4]; 0.1 mg/kg, IR, SC, 0.1 mg/Kg, DEX:PEP 5:1 saline): 91%
- bioavailability ([4]; 0.1 mg/kg, pH 4, IR, SC, 0.1 mg/Kg, Lactic acid buffer pH 4): 45%
- Cmax [4, 6]: 238 ng/mL
- bioavailability [4, 6]: 88.4%
- Cmax [4, 7]: 255 ng/mL
- bioavailability [4, 7]: 85.3%
- bioavailability ([4]; 0.4 mg/kg, pH 4, IR, SC, 0.4 mg/Kg, Lactic acid buffer pH 4): 69%
- Cmax ([4]; 0.4 mg/kg, pH 4, IR, Lactic acid buffer pH 4): 108 ng/mL
- emulsification [5]: allowing an emulsion to form
SMILES: C[C@@H](O)[C@@H]1NC(=O)[C@H](CCCCN)NC(=O)[C@@H](Cc2c[nH]c3ccccc23)NC(=O)[C@H](Cc2c[nH]c3ccccc23)NC(=O)[C@H](Cc2ccccc2)NC(=O)CCCNC(=O)CCCN(CC(N)=O)C(=O)[C@H](Cc2ccccc2)NC1=O [Veldoreotide, cyclo(-γ-aminobutyryl-L-phenylalanyl-L-tryptophanyl-D-tryptophanyl-L-lysyl-L-threonyl-L-phenylalanyl-N-carbamoylmethyl-γ-aminobutyryl)]
